Assay results from ChEMBL document CHEMBL1159076, “Toosendanin: synthesis of the AB-ring and investigations of its anti-botulinum properties (Part II)” (Bioorg Med Chem, 2010).
Calls of active or inactive are those of the source. No cut-off for these calls is given here.

Tests used:
[1] = target: Botulinum neurotoxin type A (Clostridium botulinum (strain Hall / ATCC 3502 / NCTC 13319 / Type A)) (UniProt P0DPI1); assay: Inhibition of Clostridium botulinum strain Hall A hyper botulinum neurotoxin type A1 in rat spinal cord cells assessed as intact SNAP25 protein level at 200 uM after 24 hrs by Western blot using monoclonal anti-SNAP25 antibody; assay type: cell-based
[2] = target: Botulinum neurotoxin type A (Clostridium botulinum (strain Hall / ATCC 3502 / NCTC 13319 / Type A)) (UniProt P0DPI1); assay: Inhibition of Clostridium botulinum strain Hall A hyper botulinum neurotoxin type A1 in rat spinal cord cells assessed as intact SNAP25 protein level at 1 mM after 24 hrs by Western blot using monoclonal anti-SNAP25 antibody; assay type: cell-based

Sequence of Botulinum neurotoxin type A (Clostridium botulinum (strain Hall / ATCC 3502 / NCTC 13319 / Type A)) (P0DPI1 2-448 limits assumed): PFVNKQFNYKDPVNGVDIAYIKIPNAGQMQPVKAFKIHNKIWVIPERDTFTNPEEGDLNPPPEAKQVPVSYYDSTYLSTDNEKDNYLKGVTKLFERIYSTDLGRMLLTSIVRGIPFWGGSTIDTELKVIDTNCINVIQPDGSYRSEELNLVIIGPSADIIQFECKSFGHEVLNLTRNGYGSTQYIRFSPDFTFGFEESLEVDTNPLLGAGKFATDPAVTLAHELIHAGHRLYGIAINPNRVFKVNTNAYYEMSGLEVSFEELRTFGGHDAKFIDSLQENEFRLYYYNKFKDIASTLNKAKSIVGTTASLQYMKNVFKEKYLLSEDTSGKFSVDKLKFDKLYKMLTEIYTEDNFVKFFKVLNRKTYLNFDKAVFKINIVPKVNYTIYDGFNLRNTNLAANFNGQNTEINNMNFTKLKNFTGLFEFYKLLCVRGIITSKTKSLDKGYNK

Structure (SMILES)	inhibition [1]	inhibition [2]
CC(=O)O[C@@H]1C[C@H](O)[C@@]23CO[C@@H](O)[C@]1(C)[C@@H]2C[C@@H](O)[C@]1(C)[C@@H]3C(=O)[C@H](OC(C)=O)[C@@]2(C)[C@H](c3ccoc3)C[C@H]3O[C@]321	Active	
CC(=O)O[C@@H]1C[C@H](O)[C@]23CC[C@@H](O)C[C@H]2[C@H]1[C@H](O)OC3		inactive
CC(=O)O[C@@H]1C[C@H](O)[C@]23CC[C@H](O)C[C@H]2[C@H]1[C@H](O)OC3		inactive
